Data from US10005768B2, “Carboxamide derivatives and use thereof” (Purdue Pharma L.P., priority 2013, dated 2018).

Target: human Nav1.7 (Homo sapiens (Human), UniProt Q15858)
Assay: FLIPR sodium dye assay (CoroNa Green AM Na+ dye, primary fluorescence assay)
Type: cell-based
Conditions: recombinant Nav1.7/HEK293 cells
Description: In vitro assays were performed in a recombinant cell line expressing cDNA encoding the alpha subunit (Nav1.7, SCN9a, PN1, NE) of human Nav1.7 (Accession No. NM_002977). The cell line was provided by investigators at Yale University (Cummins et al, J. Neurosci. 18(23): 9607-9619 (1998)). For dominant selection of the Nav1.7-expressing clones, the expression plasmid co-expressed the neomycin resistance gene. The cell line was constructed in the human embryonic kidney cell line, HEK293, under the influence of the CMV […] promoter, and stable clones were selected using limiting dilution cloning and antibiotic selection using the neomycin analogue, G418. Recombinant beta and gamma subunits were not introduced into this cell line. Additional cell lines expressing recombinant Nav1.7 cloned from other species can also be used, alone or in combination with various beta subunits, gamma subunits or chaperones.
Unless otherwise noted, cell culture reagents were purchased from Mediatech of Herndon, Va. The recombinant Nav1.7/HEK293 cells were routinely cultured in growth medium consisting of Dulbecco's […] essential medium containing 10% fetal bovine serum (FBS, Hyclone, Thermo Fisher Scientific, Logan, Utah), 100 U/mL penicillin, 100 μg/mL streptomycin, 2-4 mM L-glutamine, and […] G418. For natural, non-recombinant cell lines, the selective antibiotic was omitted, and additional media formulations can be applied as needed.
The final buffer consisted of 20 mM Hepes, pH 7.3, 1.261 mM CaCl2, 0.493 mM MgCl2, 0.407 mM Mg(SO)4, 5.33 mM KCl, 0.441 mM KH2PO4, 137 mM NaCl, 0.336 mM Na2HPO4 and […] D-glucose (Hanks et al., Proc. Soc. Exp. Biol. Med. 71:196 (1949)), and the simple formulation was typically the basic buffer throughout the assay (i.e., all wash and addition steps).
The fluorescence indicator used in the primary fluorescence assay was the cell permeant version of CoroNa™ Green (Invitrogen, Molecular Probes, Eugene, Oreg.), a dye that emits light in the fluorescence range (Harootunian et al., J. Biol. Chem. 264(32):19458-19467 (1989)). The intensity of this emission, but not the wavelength range, is increased when the dye is exposed to Na^+ ions, which it can bind with partial selectivity. Cells expressing Nav1.7 or other sodium channels were loaded with the CoroNa™ Green dye immediately in advance of the fluorescence assay, and then, after agonist stimulation, the mobilization of Na^+ ions was detected as the Na^+ ions flowed from the extracellular fluid into the cytoplasm through the activated sodium channel pores. The dye was stored in the dark as a lyophilized powder, and then an aliquot was dissolved immediately before the cell loading procedure, according to the instructions of the manufacturer, to a stock concentration of 10 mM in DMSO. It was then diluted in the assay buffer to a 4× concentrated working solution, so that the final concentration of dye in the cell loading buffer was 5 μM.
In the fluorescence assays, two agonists were used in combination, namely 1) veratridine; and 2) the venom from the yellow scorpion, Leiurus quinquestriatus hebraeus. Veratridine is an alkaloid small molecule that facilitates the capture of channel openings by inhibiting inactivation, and the scorpion venom is a natural preparation that includes peptide toxins selective for different subsets of voltage-gated sodium channels. These scorpion toxins inhibit the fast inactivation of their cognate target channels. Stock solutions of the agonists were prepared to 40 mM in DMSO (veratridine) and 1 mg/mL in dH2O (scorpion venom), and then diluted to make a 4× or 2× stock (depending on the particular assay) in assay buffer, the final concentration being 100 μM (veratridine) and 10 μg/mL (scorpion venom). Both of the agonists were purchased from Sigma Aldrich, St. Louis, Mo.
Test compounds were dissolved in DMSO to yield 10 mM stock solutions. […]

Chain of human Nav1.7 (Q15858 other isoform, or with tags, fused parts or gaps): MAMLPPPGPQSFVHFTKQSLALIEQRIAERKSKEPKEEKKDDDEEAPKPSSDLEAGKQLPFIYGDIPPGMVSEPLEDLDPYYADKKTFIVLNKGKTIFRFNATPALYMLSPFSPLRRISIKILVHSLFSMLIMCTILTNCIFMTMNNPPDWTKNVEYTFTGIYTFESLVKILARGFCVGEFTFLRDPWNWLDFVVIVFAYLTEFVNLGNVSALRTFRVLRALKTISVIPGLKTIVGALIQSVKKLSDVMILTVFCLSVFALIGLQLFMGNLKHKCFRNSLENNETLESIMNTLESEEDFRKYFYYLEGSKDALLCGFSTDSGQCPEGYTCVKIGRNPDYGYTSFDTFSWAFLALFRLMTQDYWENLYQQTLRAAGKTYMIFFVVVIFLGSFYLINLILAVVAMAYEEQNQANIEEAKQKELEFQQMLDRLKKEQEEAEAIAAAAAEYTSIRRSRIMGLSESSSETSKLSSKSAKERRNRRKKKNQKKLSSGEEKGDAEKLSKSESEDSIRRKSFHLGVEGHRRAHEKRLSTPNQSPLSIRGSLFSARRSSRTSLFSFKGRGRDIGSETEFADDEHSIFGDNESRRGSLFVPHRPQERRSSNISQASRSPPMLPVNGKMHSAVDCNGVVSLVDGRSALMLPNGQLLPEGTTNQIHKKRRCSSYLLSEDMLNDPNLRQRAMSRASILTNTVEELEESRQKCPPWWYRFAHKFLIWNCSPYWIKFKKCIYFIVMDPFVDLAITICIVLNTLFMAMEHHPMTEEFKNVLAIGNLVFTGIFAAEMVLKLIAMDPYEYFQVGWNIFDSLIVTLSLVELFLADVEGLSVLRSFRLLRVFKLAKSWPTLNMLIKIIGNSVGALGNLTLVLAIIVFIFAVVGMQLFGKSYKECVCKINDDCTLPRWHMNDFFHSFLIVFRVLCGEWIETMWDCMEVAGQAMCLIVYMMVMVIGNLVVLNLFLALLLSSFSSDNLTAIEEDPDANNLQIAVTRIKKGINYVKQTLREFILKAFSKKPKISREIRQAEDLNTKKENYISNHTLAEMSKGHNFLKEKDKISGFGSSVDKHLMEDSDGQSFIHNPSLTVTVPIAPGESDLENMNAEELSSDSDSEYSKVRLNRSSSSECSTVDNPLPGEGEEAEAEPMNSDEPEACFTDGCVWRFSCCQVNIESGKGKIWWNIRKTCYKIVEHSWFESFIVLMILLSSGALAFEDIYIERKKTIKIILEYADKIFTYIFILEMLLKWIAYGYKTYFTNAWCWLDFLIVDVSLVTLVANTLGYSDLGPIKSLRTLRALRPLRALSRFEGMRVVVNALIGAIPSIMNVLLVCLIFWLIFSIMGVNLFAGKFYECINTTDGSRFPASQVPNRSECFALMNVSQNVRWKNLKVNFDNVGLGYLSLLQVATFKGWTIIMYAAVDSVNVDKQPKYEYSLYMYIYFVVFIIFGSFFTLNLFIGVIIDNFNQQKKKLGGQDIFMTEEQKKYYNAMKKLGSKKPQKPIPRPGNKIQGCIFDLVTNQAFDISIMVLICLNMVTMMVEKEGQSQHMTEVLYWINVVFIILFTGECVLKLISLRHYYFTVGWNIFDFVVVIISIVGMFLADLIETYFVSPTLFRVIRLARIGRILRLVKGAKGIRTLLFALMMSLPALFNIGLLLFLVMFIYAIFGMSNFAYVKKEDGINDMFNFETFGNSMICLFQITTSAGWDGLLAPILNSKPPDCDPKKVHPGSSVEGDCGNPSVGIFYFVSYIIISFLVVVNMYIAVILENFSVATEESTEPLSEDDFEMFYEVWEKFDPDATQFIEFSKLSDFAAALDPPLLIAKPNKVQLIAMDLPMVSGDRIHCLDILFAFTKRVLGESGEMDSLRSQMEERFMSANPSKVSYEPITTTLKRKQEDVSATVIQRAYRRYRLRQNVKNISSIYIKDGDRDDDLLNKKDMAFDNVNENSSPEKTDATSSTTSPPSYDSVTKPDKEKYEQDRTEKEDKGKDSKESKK

CN1CCN(Cc2cc(C(F)(F)F)ccc2Oc2ccc(-c3cccc(C(N)=O)n3)cc2)CC1 [compound 33, 6-(4-(2-((4-methylpiperazin-1-yl)methyl)-4-(trifluoromethyl)-phenoxy)phenyl)picolinamide]
IC50: 0.221 ± 0.049 µM

NC(=O)c1cccc(-c2ccc(Oc3ccc(C(F)(F)F)cc3CNCCN3CCNC3=O)cc2)n1 [compound 34, 6-(4-(2-(((2-(2-oxoimidazolidin-1-yl)ethyl)amino)methyl)-4-(trifluoromethyl)phenoxy)phenyl) picolinamide]
IC50: 1.77 ± 0.57 µM

NC(=O)c1cccc(-c2ccc(Oc3ccc(C(F)(F)F)cc3CN3CCNC(=O)C3)cc2)n1 [compound 35, 6-(4-(2-((3-oxopiperazin-1-yl)methyl)-4-(trifluoromethyl)-phenoxy)phenyl)picolinamide]
IC50: 0.141 ± 0.022 µM

NC(=O)c1cccc(-c2ccc(Oc3ccc(C(F)(F)F)cc3CN3CC[C@H](O)C3)cc2)n1 [compound 36, (S)-6-(4-(2-((3-hydroxypyrrolidin-1-yl)methyl)-4-(trifluoromethyl)-phenoxy)phenyl)picolinamide]
IC50: 0.432 ± 0.131 µM

CN(C)CCN(C)Cc1cc(C(F)(F)F)ccc1Oc1ccc(-c2cccc(C(N)=O)n2)cc1 [compound 37, 6-(4-(2-(((2-(dimethylamino)-ethyl)(methyl)amino)methyl)-4-(trifluoromethyl)phenoxy)-phenyl)picolinamide]
IC50: 1.07 ± 0.117 µM

CN(C)CCCNCc1cc(C(F)(F)F)ccc1Oc1ccc(-c2cccc(C(N)=O)n2)cc1 [compound 38, 6-(4-(2-(((3-(dimethylamino)-propyl)amino)methyl)-4-(trifluoromethyl)phenoxy)phenyl) picolinamide]
IC50: 1.69 ± 0.157 µM

CN(C)Cc1cc(C(F)(F)F)ccc1Oc1ccc(-c2cccc(C(N)=O)n2)cc1 [compound 39, 6-(4-(2-((dimethylamino)methyl)-4-(trifluoromethyl)phenoxy)-phenyl)picolinamide]
IC50: 0.179 ± 0.034 µM

NC(=O)c1cccc(-c2ccc(Oc3ccc(C(F)(F)F)cc3CNCCO)cc2)n1 [compound 40, 6-(4-(2-(((2-hydroxyethyl)-amino)methyl)-4-(trifluoro-methyl)phenoxy)phenyl)picolin-amide]
IC50: 1.68 ± 0.177 µM

NC(=O)c1cccc(-c2ccc(Oc3ccc(C(F)(F)F)cc3CN3CCC[C@H]3CO)cc2)n1 [compound 41, (S)-6-(4-(2-((2-(hydroxyl-methyl)pyrrolidin-1-yl)methyl)-4-(trifluoromethyl)phenoxy)phenyl) picolinamide]
IC50: 1.13 ± 0.1 µM

NC(=O)c1cccc(-c2ccc(Oc3ccc(C(F)(F)F)cc3CN3CCC[C@@H]3CO)cc2)n1 [compound 42, (R)-6-(4-(2-((2-(hydroxyl-methyl)pyrrolidin-1-yl)methyl)-4-(trifluoromethyl)phenoxy)phenyl) picolinamide]
IC50: 1.17 ± 0.186 µM

NC(=O)c1cccc(-c2ccc(Oc3ccc(C(F)(F)F)cc3CN3CCOCC3)cc2)n1 [compound 43, 6-(4-(2-(morpholinomethyl)-4-(trifluoromethyl)phenoxy)phenyl) picolinamide]
IC50: 0.223 ± 0.018 µM

NC(=O)c1cccc(-c2ccc(Oc3ccc(C(F)(F)F)cc3CN3CCC[C@H]3C(N)=O)cc2)n1 [compound 44, (S)-6-(4-(2-((2-carbamoyl-pyrrolidin-1-yl)methyl)-4-(trifluoromethyl)phenoxy)phenyl) picolinamide]
IC50: 1.16 ± 0.076 µM

NC(=O)c1cccc(-c2ccc(Oc3ccc(C(F)(F)F)cc3CN3CCC(F)(F)C3)cc2)n1 [compound 45, 6-(4-(2-((3,3-difluoropyrrolidin-1-yl)methyl)-4-(trifluoromethyl)phenoxy)phenyl) picolinamide]
IC50: 0.113 ± 0.034 µM

NC(=O)c1cccc(-c2ccc(Oc3ccc(C(F)(F)F)cc3CN[C@H]3CCNC3=O)cc2)n1 [compound 46, (S)-6-(4-(2-(((2-oxopyrrolidin-3-yl)amino)methyl)-4-(trifluoro-methyl)phenoxy)phenyl)picolin-amide]
IC50: 2.58 ± 0.692 µM

CC(C)(C)OC(=O)NC1CCN(Cc2cc(C(F)(F)F)ccc2Oc2ccc(-c3cccc(C(N)=O)n3)cc2)C1 (stereo not shown) [compound 47, tert-butyl (1-(2-(4-(6-carbamoylpyridin-2-yl)phenoxy)-5-(trifluoromethyl)-benzyl)pyrrolidin-3-yl)carbamate]
IC50: 0.949 ± 0.168 µM

CC(C)(C)OC(=O)N1CCC(NCc2cc(C(F)(F)F)ccc2Oc2ccc(-c3cccc(C(N)=O)n3)cc2)C1 (stereo not shown) [compound 48, tert-butyl 3-((2-(4-(6-carbamoylpyridin-2-yl)phenoxy)-5-(trifluoromethyl)benzyl)-amino)pyrrolidine-1-carboxylate]
IC50: 0.913 ± 0.016 µM

NC(=O)c1cccc(-c2ccc(Oc3ccc(C(F)(F)F)cc3CN3CCCCC3)cc2)n1 [compound 49, 6-(4-(2-(piperidin-1-ylmethyl)-4-(trifluoromethyl)phenoxy)phenyl) picolinamide]
IC50: 0.096 ± 0.01 µM

NC(=O)c1cccc(-c2ccc(Oc3ccc(C(F)(F)F)cc3CN3CCC3)cc2)n1 [compound 50, 6-(4-(2-(azetidin-1-ylmethyl)-4-(trifluoromethyl)phenoxy)phenyl) picolinamide]
IC50: 0.768 ± 0.051 µM

NC(=O)c1cccc(-c2ccc(Oc3ccc(C(F)(F)F)cc3CN3CCCC(O)C3)cc2)n1 (stereo not shown) [compound 51, 6-(4-(2-((3-hydroxypiperidin-1-yl)methyl)-4-(trifluoromethyl)-phenoxy)phenyl)picolinamide]
IC50: 0.566 ± 0.062 µM

CN(CCO)Cc1cc(C(F)(F)F)ccc1Oc1ccc(-c2cccc(C(N)=O)n2)cc1 [compound 52, 6-(4-(2-(((2-hydroxyethyl)-(methyl)amino)methyl)-4-(trifluoromethyl)phenoxy)phenyl) picolinamide]
IC50: 1.1 ± 0.107 µM

NC(=O)c1cccc(-c2ccc(Oc3ccc(C(F)(F)F)c(CN4CCC4)c3)cc2)n1 [compound 53, 6-(4-(3-(azetidin-1-ylmethyl)-4-(trifluoromethyl)phenoxy)phenyl) picolinamide]
IC50: 0.384 ± 0.106 µM

NC(=O)c1cccc(-c2ccc(Oc3ccc(C(F)(F)F)c(CN4CC[C@H](O)C4)c3)cc2)n1 [compound 54, (S)-6-(4-(3-((3-hydroxy-pyrrolidin-1-yl)methyl)-4-(trifluoromethyl)phenoxy)-phenyl)picolinamide]
IC50: 0.366 ± 0.085 µM

NC(=O)c1cccc(-c2ccc(Oc3ccc(C(F)(F)F)c(CNCCC(F)(F)F)c3)cc2)n1 [compound 55, 6-(4-(4-(trifluoromethyl)-3-(((3,3,3-trifluoropropyl)amino)-methyl)phenoxy)phenyl)picolin-amide]
IC50: 0.174 ± 0.018 µM

NC(=O)c1cccc(-c2ccc(Oc3ccc(C(F)(F)F)c(CN4CCCC4)c3)cc2)n1 [compound 56, 6-(4-(3-(pyrrolidin-1-ylmethyl)-4-(trifluoromethyl)phenoxy)phenyl) picolinamide]
IC50: 0.173 ± 0.033 µM

CC(c1cc(C(F)(F)F)ccc1Oc1ccc(-c2cccc(C(N)=O)n2)cc1)N1CCCC1 (stereo not shown) [compound 58, 6-(4-(2-(1-(pyrrolidin-1-yl)ethyl)-4-(trifluoromethyl)phenoxy)-phenyl)picolinamide]
IC50: 0.231 ± 0.008 µM

NC(=O)c1cccc(-c2ccc(Oc3cccc(CN4CCCC4)n3)cc2)n1 [compound 59, 6-(4-((6-(pyrrolidin-1-ylmethyl)pyridin-2-yl)oxy)phenyl)picolinamide]
IC50: > 20 µM

NC(=O)c1cccc(-c2ccc(Oc3ccc(C(F)(F)F)cc3CN3CCC(N)C3)cc2)n1 (stereo not shown) [compound 60, 6-(4-(2-((3-aminopyrrolidin-1-yl)methyl)-4-(trifluoromethyl)-phenoxy)phenyl)picolinamide]
IC50: 1.85 ± 0.361 µM

NC(=O)c1cccc(-c2ccc(Oc3ccc(C(F)(F)F)cc3CNC3CCNC3)cc2)n1 (stereo not shown) [compound 61, 6-(4-(2-((pyrrolidin-3-ylamino)methyl)-4-(trifluoromethyl)phenoxy)phenyl) picolinamide]
IC50: 2.04 ± 0.06 µM
